Measured values taken from article PMC2978498 (Angewandte Chemie (International ed. in English), 2009).
Values belong to the molecule of their own block, whether it stands above or below them. No end group written: not given here.

Assays:
[1] = target: T1, Dvl PDZ domain (Dvl1 PDZ) (Mus musculus, UniProt P51141); assay: binding test shown only in supplement
T1 sequence (P51141 248-337): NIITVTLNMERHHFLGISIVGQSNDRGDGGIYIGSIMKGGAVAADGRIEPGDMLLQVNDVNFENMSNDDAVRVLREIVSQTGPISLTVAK

[2] = target: T1, Dvl PDZ domain (Dvl1 PDZ); assay: fluorescence polarization competition with Rox-DprC peptide; format: binding
[3] = target: T2, Dapper C-terminal peptide (Rox-DprC) (Xenopus laevis); assay: fluorescence polarization
T2 chain: Rox-SGSLKLMTTV

- Ki [2]: 8 ± 0.2 µM
Molecule: CC1=C(CC(=O)O)c2cc(F)ccc2/C1=C\c1ccc(S(C)(=O)=O)cc1 [sulindac sulfone]

- Ki [2]: 10.7 ± 1.2 µM
Molecule: CC1=C(CC(=O)O)c2cc(F)ccc2/C1=C\c1ccc([S@@+](C)[O-])cc1 [sulindac]

The remaining lines, values behind:

Molecule: CSc1ccc(/C=C2/C(C)=C(CC(=O)O)c3cc(F)ccc32)cc1 [sulindac sulfide]
- binding test shown only in supplement [1]: binds to the PDZ domain with much weaker affinity (Figure S6)

B1: Dishevelled PDZ domain (Dvl1) PDZ (protein)
chain: NIITVTLNMERHHFLGISIVGQSNDRGDGGIYIGSIMKGGAVAADGRIEPGDMLLQVNDVNFENMSNDDAVRVLREIVS
- Kd [3]: ~8 µM
